Experiment: Solubility behaviour in water and cosmetic solvents/oils
Type: physicochemical
Settings: for Solubility behaviour [%], Cyclomethicone: solvent: Cyclomethicone; for Solubility behaviour [%], Finsolve TN: solvent: Finsolve TN; for Solubility behaviour [%], Jojoba Oil: solvent: Jojoba Oil; for Solubility behaviour [%], Mineral Oil: solvent: Mineral Oil; for Solubility behaviour [%], Mygliol: solvent: Mygliol; for Solubility behaviour [%], Polydecene: solvent: Polydecene; for Solubility behaviour [%], Propyleneglycol: solvent: Propyleneglycol; for Solubility behaviour [%], (Water): solvent: water

Row | Compound | Solubility behaviour [%], Cyclomethicone [%] | Solubility behaviour [%], Finsolve TN [%] | Solubility behaviour [%], Jojoba Oil [%] | Solubility behaviour [%], Mineral Oil [%] | Solubility behaviour [%], Mygliol [%] | Solubility behaviour [%], Polydecene [%] | Solubility behaviour [%], Propyleneglycol [%] | Solubility behaviour [%], (Water) [%]
1 | CCCCC(CC)CN(CC(CC)CCCC)C1=CC(=C(C#N)C#N)CC(C)(C)C1 (stereo not shown) | 0.509 | >5 | 2.470 | 0.569 | >5 | 0.367 | 0.361 | 0.000
2 | CCCCC(CC)CN(CC(CC)CCCC)C1=CC(=C(C#N)C#N)CCC1 (stereo not shown) | 0.540 | >50 | >50 | 1.514 | >50 | 0.734 | 0.766 | 0.000

Reference: patent US7790769B2, “Merocyanine derivatives” (Ciba Corporation, priority 2005, dated 2010)
